How the values were obtained:
Type in all cases: in vivo
[1] = system: Abutilon theophrasti; experiment: Pre-emergence herbicidal activity, glasshouse pot test; conditions: pre-emergence spray, rate 1000 g/ha, evaluated after 13 days, scale 0-5
In short: (§1)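 Damage score 0–5 (5 = total damage) read 13 d after spraying. Pots sown, sprayed pre-emergence at day 1 with aqueous spray from acetone/water 50:50 + 0.5% Tween 20 formulation; glasshouse 24/16 °C, 14 h light, 65% RH.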

[2] = system: Alopecurus myosuroides; experiment: as above; conditions: pre-emergence spray, rate 1000 g/ha, evaluated after 13 days, scale 0-5
In short: as §1

[3] = system: Amaranthus retroflexus; experiment: as above; conditions: pre-emergence spray, rate 1000 g/ha, evaluated after 13 days, scale 0-5
In short: as §1

[4] = system: Echinochloa crus-galli; experiment: as above; conditions: pre-emergence spray, rate 1000 g/ha, evaluated after 13 days, scale 0-5
In short: as §1

[5] = system: Setaria faberi; experiment: as above; conditions: pre-emergence spray, rate 1000 g/ha, evaluated after 13 days, scale 0-5
In short: as §1

[6] = system: zea mays; experiment: as above; conditions: pre-emergence spray, rate 1000 g/ha, evaluated after 13 days, scale 0-5
In short: as §1

[7] = system: Abutilon theophrasti; experiment: Post-emergence herbicidal activity, glasshouse pot test; parameters: key: 0 = no damage to plant, 5 = total damage to plant; conditions: Application post-emergence, rate 1000 g/ha, evaluated after 13 days
In short: (§2)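 After 8 days of glasshouse growth at 24/16 °C day/night, potted plants receive a foliar spray of the formulated compound (0.5% Tween 20 in acetone/water). They are then watered twice daily under unchanged conditions, and phytotoxicity is scored 0–5 after 13 days.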

[8] = system: Alopecurus myosuroides; experiment: as above; parameters: key: 0 = no damage to plant, 5 = total damage to plant; conditions: Application post-emergence, rate 1000 g/ha, evaluated after 13 days
In short: as §2

[9] = system: Amaranthus retroflexus; experiment: as above; parameters: key: 0 = no damage to plant, 5 = total damage to plant; conditions: Application post-emergence, rate 1000 g/ha, evaluated after 13 days
In short: as §2

[10] = system: Echinochloa crus-galli; experiment: as above; parameters: key: 0 = no damage to plant, 5 = total damage to plant; conditions: Application post-emergence, rate 1000 g/ha, evaluated after 13 days
In short: as §2

[11] = system: Setaria faberi; experiment: as above; parameters: key: 0 = no damage to plant, 5 = total damage to plant; conditions: Application post-emergence, rate 1000 g/ha, evaluated after 13 days
In short: as §2

[12] = system: zea mays; experiment: as above; parameters: key: 0 = no damage to plant, 5 = total damage to plant; conditions: Application post-emergence, rate 1000 g/ha, evaluated after 13 days
In short: as §2

| SMILES | ABUTH damage score, application pre-emergence [1] | ALOMY damage score, application pre-emergence [2] | AMARE damage score, application pre-emergence [3] | ECHCG damage score, application pre-emergence [4] | SETFA damage score, application pre-emergence [5] | ZEAMX damage score, application pre-emergence [6] | ABUTH herbicidal damage score [7] | ALOMY herbicidal damage score [8] | AMARE herbicidal damage score [9] | ECHCG herbicidal damage score [10] | SETFA herbicidal damage score [11] | ZEAMX herbicidal damage score [12] |
| --- | --- | --- | --- | --- | --- | --- | --- | --- | --- | --- | --- | --- |
| COC1=C(OC)C(O)N(c2cc(Cl)c(Cl)cn2)C1=O (stereo not drawn) [AK7] | 2 | 0 | 0 | 4 | 0 | 0 | 5 | 4 | 5 | 5 | 5 | 1 |
| CCc1cc(N2C(=O)C(OC)=C(C)C2O)ncc1Br (stereo not drawn) [AI22] | 1 | 3 | 5 | 4 | 2 | 1 | 4 | 4 | 5 | 5 | 5 | 1 |
| CC1=C(Cl)C(=O)N(c2ncc(C#N)c(C(C)(C)C)n2)C1O (stereo not drawn) [DF6] | 2 | 3 | 5 | 4 | 4 | 2 | 5 | 4 | 5 | 5 | 5 | 1 |
| CC1=C(Cl)C(=O)N(c2cc(C(F)(F)F)ncn2)C1O (stereo not drawn) [CF3] | 5 | 3 | 3 | 4 | 3 | 1 | 5 | 5 | 3 | 5 | 5 | 4 |
| CC1=C(Cl)C(=O)N(c2cc(C(C)(C)C)ccn2)C1O (stereo not drawn) [AF36] | 5 | 4 | 5 | 5 | 5 | 2 | 5 | 4 | 3 | 5 | 5 | 4 |
| COc1nnc(N2C(=O)C(Cl)=C(C)C2O)cc1C (stereo not drawn) [BF6] | 4 | 3 | 5 | 5 | 3 | 2 | 5 | 5 | 5 | 5 | 5 | 4 |
| COc1cc(N2C(=O)C(Cl)=C(C)C2O)ncn1 (stereo not drawn) [CF21] | 1 | 2 | 4 | 5 | 4 | 2 | 3 | 4 | 3 | 5 | 5 | 3 |
| CC1=C(Cl)C(=O)N(c2cc(C(F)(F)F)c(Cl)cn2)C1O (stereo not drawn) [AF58] | 2 | 3 | 5 | 4 | 3 | 0 | 5 | 4 | 5 | 5 | 5 | 3 |
| COC1=C(C)C(O)N(c2cc(C)c(C#N)nn2)C1=O (stereo not drawn) [BI5] | 0 | 0 | 0 | 0 | 0 | 0 | 0 | 0 | 0 | 0 | 0 | 0 |
| CC1=C(Cl)C(=O)N(c2ccc(C(F)(F)F)nn2)C1O (stereo not drawn) [BF7] | 4 | 2 | 4 | 3 | 4 | 1 | 2 | 2 | 2 | 3 | 4 | 2 |
| COC1=C(C)C(O)N(c2cc(C(C)(F)F)c(C)nn2)C1=O (stereo not drawn) [BI24] | 5 | 4 | 5 | 4 | 4 | 3 | 5 | 4 | 5 | 5 | 5 | 3 |
| COC1=C(C)C(O)N(c2cc(C(C)(C)F)c(-c3ccc(F)cc3)nn2)C1=O (stereo not drawn) [BI11] | 4 | 2 | 5 | 2 | 4 | 2 | 4 | 4 | 5 | 4 | 5 | 2 |

From patent US9963445B2, “Chemical compounds” (SYNGENTA PARTICIPATIONS AG, priority 2013, dated 2018)
